Holding throughout (assay type): physicochemical
Data set [1] can be described thus: Crystallinity by powdery X-ray diffraction analysis (Ruland method). The conditions noted are these: pulverized specimen, three specimens each, c axis about 10 mm, tetradodecahedral crystal. How it is done:
The crystallinity was determined by pulverizing a specimen and applying the Ruland method in Acta Crystallographica, Vol. 14, p. […] As a control, commercially available crystal sugar with a size equivalent to those of the specimens was examined similarly as above.

A short description of data set [2]: Intrusion disruptive strength by rheometer (needle about 3 mm in diameter). Conditions: stage elevated at 6 cm/min, three specimens each, strength when needle ruptures the crystal. The procedure:
As a representative polyhedral crystalline trehalose dihydrate having the c axis of about 10 mm, obtained by the methods in the later described Examples A-1 and A-2, three specimens with a tetradodecahedral crystalline structure were used and examined for the crystallinity by powdery X-ray diffraction analysis and the intrusion disruptive strength by rheometer. The crystallinity was determined by pulverizing a specimen and applying the Ruland method in Acta Crystallographica, Vol. 14, p. 1,180 (1961) using “GEIGERFLEX RAD-IIB”, an X-ray diffraction analyzer using Cuka ray commercialized by Rigaku Corporation, Tokyo, Japan, based on the powdery X-ray diffraction intensity. Using “FUDOH RHEO METER NRM-2010J-CW”, a rheometer commercialized by Rheotech Co., Ltd., Tokyo, Japan; and a needle, about 3 mm in diameter, as an adaptor, the intrusion disruptive strength was determined by placing a polyhedral crystal on a specimen stage, elevating the stage to the direction of the needle at a rate of 6 cm/min, and measuring the strength (kg) when the needle intrudes into and ruptures the polyhedral crystal. As a control, commercially available crystal sugar with a size equivalent to those of the specimens was examined similarly as above.

The nature of data set [3]: Hygroscopicity / solidification of the crystal products. Conditions: dried crystal product; dihydrate.

Values joined by “and” are separate entries in the source; they are usually repeats but may differ in a detail not shown here. Identical values can stand only once.

As to `O.O.OC[C@H]1O[C@H](O[C@H]2O[C@H](CO)[C@@H](O)[C@H](O)[C@H]2O)[C@H](O)[C@@H](O)[C@@H]1O` [Example A-1, crystalline trehalose dihydrate], the Crystallinity in data set [1] (dihydrate) is 84% and 83%. Further, the Intrusion disruptive strength in data set [2] (dihydrate) is 4.3 kg and 4.1 kg and 4.0 kg. In addition, in data set [3], the Hygroscopicity and solidification result is “do not substantially absorb moisture to be solidified”.

As for `OC[C@H]1O[C@@](CO)(O[C@H]2O[C@H](CO)[C@@H](O)[C@H](O)[C@H]2O)[C@@H](O)[C@@H]1O` [Sugar crystal, reference compound], the Crystallinity in data set [1] is 84% and 85%. Besides, the Intrusion disruptive strength in data set [2] is 9.9 kg and 10.0 kg.

On to `O.O.OC[C@H]1O[C@H](O[C@H]2O[C@H](CO)[C@@H](O)[C@H](O)[C@H]2O)[C@H](O)[C@@H](O)[C@@H]1O` [Example A-2, crystalline trehalose dihydrate], for which the Crystallinity in data set [1] (dihydrate) is 84% and 83%. For the same compound, the Intrusion disruptive strength in data set [2] (dihydrate) is 3.8 kg and 3.5 kg. Further, the Hygroscopicity and solidification result in data set [3] was “insubstantial hygroscopicity and solidification”.

Source of the values: patent US20010033888A1, “Crystalline trehalose dihydrate, its preparation and uses” (KABUSHIK KAISHA HAYASHIBARA SEIBUTS KAGAKU KENKYUJO, priority 1998, published 2001).
